From patent US7300927B2, “Method for treating or preventing Alzheimer's disease” (priority 1997, dated 2007)

Legend:
mice = conditions: 13 month old mice, administered directly to the brains; cited from earlier work
SH-Sy5y cells = assay: Neuritic sprouting and neuronal differentiation in SH-Sy5y cells; assay type: cell-based
From the text: (§1) Neuritic sprouting and neuronal differentiation were induced in PNET2 and SH-Sy5y cells by insulin, PMA, or RA stimulation. […] Thus, expression of the immature or fetal forms of NTP are regulated by mechanisms and growth factors distinct from those involved in modulating expression of the 21 kD and 26 kD NTP molecules. Therefore, expression of fetal NTP molecules/genes can be mediated through the IRS-1 cascade, whereas expression of adult brain/AD-associated NTP genes can be regulated mainly through protein kinase C pathways.

PNET2 cells [1] = assay: Neuritic sprouting and neuronal differentiation in PNET2 cells; assay type: cell-based; conditions: for NTP species expression associated with neuritic growth/sprouting: PNET2 and SH-Sy5y cells (not separated); for neuritic sprouting and neuronal differentiation: PNET2 cells
From the text: as §1

PNET2 cells [2] = assay: Insulin stimulated differentiation and NTP expression in PNET2 cells; assay type: cell-based
PNET1 cells = assay: Insulin responsiveness, NTP modulation and signal transduction in PNET1 cells; assay type: cell-based
From the text: Insulin is an important mediator of growth and differentiation in CNS neurons.
Correspondingly, the insulin-stimulated association between PI3 kinase and phosphorylated IRS-1 was also impaired in PNET1 cells. In essence, impaired insulin-mediated tyrosyl phosphorylation of IRS-1 in PNET1 cells halted activation of the insulin signal transduction cascade, and subsequent events leading to modulated gene (NTP) expression. […] The results were confirmed by absent association between PI3 kinase and IRS-1-PY in PNET1 cells after insulin stimulation.

O=C(CCn1cnc2c(=O)[nH]cnc21)Nc1ccc(C(=O)[O-])cc1.[K+] [AIT-082]
animals showing a delay of about two months in any memory deficit (mice): about 50% | animals that never develop a memory deficit (mice): 50%

CCCCCCCCCCCCCC(=O)O[C@@H]1[C@@H](C)[C@@]2(O)[C@@H](C=C(CO)C[C@]3(O)C(=O)C(C)=C[C@@H]23)[C@@H]2C(C)(C)[C@]12OC(C)=O [PMA]
neuritic sprouting and neuronal differentiation (SH-Sy5y cells): induced | NTP species expression associated with neuritic growth/sprouting (PNET2 cells [1]): modulated expression of the 21 kD and 26 kD NTP species | neuritic sprouting and neuronal differentiation (PNET2 cells [1]): induced

CC1=C(/C=C/C(C)=C/C=C/C(C)=C/C(=O)O)C(C)(C)CCC1 [RA]
neuritic sprouting and neuronal differentiation (SH-Sy5y cells): induced | NTP species expression associated with neuritic growth/sprouting (PNET2 cells [1]): modulated expression of the 21 kD and 26 kD NTP species | neuritic sprouting and neuronal differentiation (PNET2 cells [1]): induced

Insulin: Insulin, an important mediator of growth and differentiation in CNS neurons
neuritic sprouting and neuronal differentiation (SH-Sy5y cells): induced | synthesis and steady state levels of all five NTP species (PNET2 cells [2]; following the transient increases): sustained increases | levels of the 39 kD, 18 kD and 15 kD NTP species (PNET2 cells [2]; insulin stimulated differentiation): rapid (within 10 minutes) but transient increases | phosphorylation of IRS-1, up-regulation of NTP, neuronal differentiation (PNET2 cells [2]; insulin stimulation): responded to insulin stimulation with phosphorylation of IRS-1, up-regulation of NTP, and neuronal differentiation | NTP species expression associated with neuritic growth/sprouting (PNET2 cells [1]): increased expression of the fetal brain and PNET-dominant forms of NTP (15 kD and 18 kD) | neuritic sprouting and neuronal differentiation (PNET2 cells [1]): induced | induction of differentiation (PNET1 cells): failure of insulin to induce differentiation | insulin modulation of NTP (PNET1 cells): absent insulin modulation of NTP | insulin receptor phosphorylation (PNET1 cells): normal insulin receptor phosphorylation | insulin-mediated tyrosyl phosphorylation of IRS-1 (PNET1 cells): impaired | insulin-stimulated association between PI3 kinase and phosphorylated IRS-1 (PNET1 cells): also impaired
